Measurements taken from patent US20180141939A1, “SOLID FORMS OF A BET INHIBITOR” (Gilead Sciences, Inc., priority 2016, published 2018).

Columns and labels:
Type in all cases: physicochemical
[1] = Relative stability of solid forms (competitive slurries); settings: statement in words
[2] = Approximate solubility in 1:1 (v/v) binary solvents
Text: (§1) In some embodiments, Compound I phosphate Form I, once formed, e.g., via the reactive crystallization methods disclosed herein, may be recrystallized from a variety of single solvents or binary solvent systems (e.g., solvent/anti-solvent systems) to promote desired physical characteristics such as crystal size. Recrystallization of Compound I phosphate Form I may occur with or without the addition of Compound I phosphate Form I seed material. The single solvents and binary solvent systems in which Compound I phosphate Form I may be recrystallized include, but are not limited to, MeOH, MeOH/EtOAc, DMA/MeCN, DMAc/toluene, DMF/MeCN, DMAc/MeCN, DMF/EtOAc, DMF/toluene, DMSO/MeCN, DMSO/MeCN, DMSO/IPA, NMP/MeCN, NMP/IPA, and NMP/EtOAc. A summary of the approximate solubility of Compound I phosphate Form I in various single solvents and binary solvent systems is provided in Tables I and II, respectively.

[3] = Solid-state chemical stability at various storage conditions
[4] = Dissolution in 50 mM sodium acetate solution, pH 5; settings: pH of 5
Procedure: The dissolution of […] and […] was also evaluated in a 50 mM sodium acetate solution at a pH of 5 (FIG. 92).

[5] = Approximate solubility in single solvents
Text: as §1

[6] = Kinetic aqueous solubility / solubility in water of salt and co-crystal forms; settings: aqueous

- Approximate Solubility ([2]; DMAc/2-MeTHF 1:1 (v/v), 50° C.): ~17.2 mg-solid/ml-solvent
- Approximate Solubility ([2]; DMAc/Acetone 1:1 (v/v), 50° C.): ~11.3 mg-solid/ml-solvent
- Approximate Solubility ([2]; DMAc/EtOAc 1:1 (v/v), 80° C.): ~10.8 mg-solid/ml-solvent
- Approximate Solubility ([2]; DMAc/IPA 1:1 (v/v), 80° C.): ~21 mg-solid/ml-solvent
- Approximate Solubility ([2]; DMAc/IPAc 1:1 (v/v), 50° C.): ~7.7 mg-solid/ml-solvent
- Approximate Solubility ([2]; DMAc/MIBK 1:1 (v/v), 50° C.): ~15 mg-solid/ml-solvent
- Approximate Solubility ([2]; DMAc/MeCN 1:1 (v/v), 50° C.): ~11.5 mg-solid/ml-solvent
- Approximate Solubility ([2]; DMF/2-MeTHF 1:1 (v/v), 50° C.): ~14.3 mg-solid/ml-solvent
- Approximate Solubility ([2]; DMF/Acetone 1:1 (v/v), 50° C.): ~19.5 mg-solid/ml-solvent
- Approximate Solubility ([2]; DMF/EtOAc 1:1 (v/v), 50° C.): ~10.8 mg-solid/ml-solvent
- Approximate Solubility ([2]; DMF/IPA 1:1 (v/v), 50° C.): ~14 mg-solid/ml-solvent
- Approximate Solubility ([2]; DMF/IPAc 1:1 (v/v), 50° C.): ~13.7 mg-solid/ml-solvent
- Approximate Solubility ([2]; DMF/MIBK 1:1 (v/v), 80° C.): ~6 mg-solid/ml-solvent
- Approximate Solubility ([2]; DMF/MIBK 1:1 (v/v), cell spans the 20° C. and 50° C. columns): remained a thin slurry
- Approximate Solubility ([2]; DMF/MeCN 1:1 (v/v), 50° C.): ~11 mg-solid/ml-solvent
- Approximate Solubility ([2]; DMSO/2-MeTHF 1:1 (v/v), 20° C.): >51.5 mg-solid/ml-solvent
- Approximate Solubility ([2]; DMSO/2-MeTHF 1:1 (v/v), 50° C.): >>51.5 mg-solid/ml-solvent
- Approximate Solubility ([2]; DMSO/2-MeTHF 1:1 (v/v), 80° C.): >>>51.5 mg-solid/ml-solvent
- Approximate Solubility ([2]; DMSO/Acetone 1:1 (v/v), 20° C.): >30 mg-solid/ml-solvent
- Approximate Solubility ([2]; DMSO/Acetone 1:1 (v/v), 50° C.): >>30 mg-solid/ml-solvent
- Approximate Solubility ([2]; DMSO/Acetone 1:1 (v/v), 80° C.): >>>30 mg-solid/ml-solvent
- Approximate Solubility ([2]; DMSO/EtOAc 1:1 (v/v), 50° C.): >51.5 mg-solid/ml-solvent
- Approximate Solubility ([2]; DMSO/EtOAc 1:1 (v/v), 80° C.): >>51.5 mg-solid/ml-solvent
- Approximate Solubility ([2]; DMSO/IPA 1:1 (v/v), 80° C.): >41 mg-solid/ml-solvent
- Approximate Solubility ([2]; DMSO/IPAc 1:1 (v/v), 20° C.): >32 mg-solid/ml-solvent
- Approximate Solubility ([2]; DMSO/IPAc 1:1 (v/v), 50° C.): >>32 mg-solid/ml-solvent
- Approximate Solubility ([2]; DMSO/IPAc 1:1 (v/v), 80° C.): >>>32 mg-solid/ml-solvent
- Approximate Solubility ([2]; DMSO/MIBK 1:1 (v/v), 50° C.): >50.5 mg-solid/ml-solvent
- Approximate Solubility ([2]; DMSO/MIBK 1:1 (v/v), 80° C.): >>50.5 mg-solid/ml-solvent
- Approximate Solubility ([2]; DMSO/MeCN 1:1 (v/v), 50° C.): >33.5 mg-solid/ml-solvent
- Approximate Solubility ([2]; DMSO/MeCN 1:1 (v/v), 80° C.): >>33.5 mg-solid/ml-solvent
- Approximate Solubility ([2]; HOAC/2-MeTHF 1:1 (v/v), 80° C.): ~15.3 mg-solid/ml-solvent
- Approximate Solubility ([2]; HOAC/Acetone 1:1 (v/v), 50° C.): >43 mg-solid/ml-solvent
- Approximate Solubility ([2]; HOAC/Acetone 1:1 (v/v), 80° C.): >>43 mg-solid/ml-solvent
- Approximate Solubility ([2]; HOAC/EtOAc 1:1 (v/v), 50° C.): ~13.8 mg-solid/ml-solvent
- Approximate Solubility ([2]; HOAC/EtOAc 1:1 (v/v), 80° C.): >41.5 mg-solid/ml-solvent
- Approximate Solubility ([2]; HOAC/IPA 1:1 (v/v), 80° C.): >44.5 mg-solid/ml-solvent
- Approximate Solubility ([2]; HOAC/IPAc 1:1 (v/v), 50° C.): ~8.3 mg-solid/ml-solvent
- Approximate Solubility ([2]; HOAC/IPAc 1:1 (v/v), 80° C.): >8.3 mg-solid/ml-solvent
- Approximate Solubility ([2]; HOAC/MIBK 1:1 (v/v), 50° C.): ~22 mg-solid/ml-solvent
- Approximate Solubility ([2]; HOAC/MIBK 1:1 (v/v), 80° C.): >22 mg-solid/ml-solvent
- Approximate Solubility ([2]; HOAC/MeCN 1:1 (v/v), 20° C.): >30.5 mg-solid/ml-solvent
- Approximate Solubility ([2]; HOAC/MeCN 1:1 (v/v), 50° C.): >>30.5 mg-solid/ml-solvent
- Approximate Solubility ([2]; HOAC/MeCN 1:1 (v/v), 80° C.): >>>30.5 mg-solid/ml-solvent
- Approximate Solubility ([2]; NMP/2-MeTHF 1:1 (v/v), 20° C.): ~12 mg-solid/ml-solvent
- Approximate Solubility ([2]; NMP/2-MeTHF 1:1 (v/v), 80° C.): ~24 mg-solid/ml-solvent
- Approximate Solubility ([2]; NMP/Acetone 1:1 (v/v), 50° C.): >24 mg-solid/ml-solvent
- Approximate Solubility ([2]; NMP/Acetone 1:1 (v/v), 80° C.): >>24 mg-solid/ml-solvent
- Approximate Solubility ([2]; NMP/IPAc 1:1 (v/v), 50° C.): ~15 mg-solid/ml-solvent
- Approximate Solubility ([2]; NMP/IPAc 1:1 (v/v), 80° C.): >44 mg-solid/ml-solvent
- Approximate Solubility ([2]; NMP/MeCN 1:1 (v/v), 80° C.): >27.5 mg-solid/ml-solvent
- % AN ([3]; 4° C., 1 month): 97.1%
- % LS ([3]; 4° C., 1 month): 100.8%
- % AN ([3]; 25° C./60% RH, 1 month): 97.1%
- % LS ([3]; 25° C./60% RH, 1 month): 100.8%
- % AN ([3]; 40° C./75% RH, 1 month): 97.2%
- % LS ([3]; 40° C./75% RH, 1 month): 100.7%
- % AN ([3]; 40° C./75% RH, open, 1 month): 97.1%
- % LS ([3]; 40° C./75% RH, open, 1 month): 100.0%
- % AN ([3]; 60° C., 1 month): 97.1%
- % LS ([3]; 60° C., 1 month): 100.7%
- % AN ([3]; Initial Time): 97.1%
- chemical stability ([3]; up to about 40° C./75% RH for about 3 months): chemically stable
- chemical stability ([3]; various conditions for about 1 month): chemically stable
- % AN ([3]; −20° C., 1 month): 96.9%
- % LS ([3]; −20° C., 1 month): 100.9%
- Approximate Solubility ([5]; 1,4-dioxane, 20-80° C.): remained a slurry
- Approximate Solubility ([5]; 1-Propanol, 20-80° C.): remained a slurry
- Approximate Solubility ([5]; 2-Butanol, 20-80° C.): remained a slurry
- Approximate Solubility ([5]; 2-MeTHF, 20° C.): 0.64 mg-solid/ml-solvent
- Approximate Solubility ([5]; 2-Propanol/IPA, 20° C.): 1.02 mg-solid/ml-solvent
- Approximate Solubility ([5]; Acetic Acid, 20° C.): ~190 mg-solid/ml-solvent
- Approximate Solubility ([5]; Acetic Acid, 50° C.): >190 mg-solid/ml-solvent
- Approximate Solubility ([5]; Acetic Acid, 80° C.): >>190 mg-solid/ml-solvent
- Approximate Solubility ([5]; Acetone, 20° C.): 0.48 mg-solid/ml-solvent
- Approximate Solubility ([5]; Acetonitrile, 20° C.): 0.23 mg-solid/ml-solvent
- Approximate Solubility ([5]; DCM (form changes), 20° C.): 1.54 mg-solid/ml-solvent
- Approximate Solubility ([5]; DMAc, 50° C.): >78 mg-solid/ml-solvent
- Approximate Solubility ([5]; DMAc, 80° C.): >>78 mg-solid/ml-solvent
- Approximate Solubility ([5]; DMF, 50° C.): <70 mg-solid/ml-solvent
- Approximate Solubility ([5]; DMF, 80° C.): >70 mg-solid/ml-solvent
- Approximate Solubility ([5]; DMSO, 50° C.): >185 mg-solid/ml-solvent
- Approximate Solubility ([5]; DMSO, 80° C.): >>185 mg-solid/ml-solvent
- Approximate Solubility ([5]; EtOH/water, 20° C.): 22.7 mg-solid/ml-solvent
- Approximate Solubility ([5]; Ethanol, 20° C.): 2.46 mg-solid/ml-solvent
- Approximate Solubility ([5]; Ethyl acetate, 20° C.): 0.45 mg-solid/ml-solvent
- Approximate Solubility ([5]; Heptane, 20° C.): <LOD
- Approximate Solubility ([5]; Heptane, cell spans the 50° C. and 80° C. columns): remained a slurry
- Approximate Solubility ([5]; Hexane, 20-80° C.): API adhered to vial walls
- Approximate Solubility ([5]; Isopropyl acetate, 20° C.): 0.37 mg-solid/ml-solvent
- Approximate Solubility ([5]; MEK, 20° C.): 2.14 mg-solid/ml-solvent
- Approximate Solubility ([5]; MIBK, 20° C.): 0.31 mg-solid/ml-solvent
- Approximate Solubility ([5]; MTBE, 20° C.): 0.16 mg-solid/ml-solvent
- Approximate Solubility ([5]; Methanol, 20° C.): 12.56 mg-solid/ml-solvent
- Approximate Solubility ([5]; NMP, 50° C.): >135 mg-solid/ml-solvent
- Approximate Solubility ([5]; NMP, 80° C.): >>135 mg-solid/ml-solvent
- Approximate Solubility ([5]; THF, 20° C.): 0.48 mg-solid/ml-solvent
- Approximate Solubility ([5]; Toluene, 20° C.): 1.34 mg-solid/ml-solvent
- Approximate Solubility ([5]; Water, 20° C.): 12.16 mg-solid/ml-solvent
- kinetic aqueous solubility [6]: about 3 mg/mL
SMILES: Cc1noc(C)c1-c1cc(C(O)(c2ccccn2)c2ccccn2)c2nc(C3CC3)[nH]c2c1 [Compound I phosphate Form I, (2-cyclopropyl-6-(3,5-dimethylisoxazol-4-yl)-1H-benzo[d]imidazol-4-yl)di(pyridin-2-yl)methanol]
- thermodynamic / physical stability of the solid form [1]: most thermodynamically stable form of Compound I phosphate in most solvents
- dissolution [4]: dissolve rapidly and maintain solubility for about 24 hours
